Experimental data as given in patent US8105608B2, “Method of treatment using ligand-immunogen conjugates” (Purdue Research Foundation, priority 2000, dated 2012).

System: M109 cells
Assay: Survival of mice with M109 cells implanted intraperitoneally close to the liver
Assay type: in vivo
Settings: Example 16; folate-FITC 1500 nmoles/kg, IFN-α 7.5×10^4 units/day days 7, 8, 9, 11, 14; FITC-KLH immunized; 5 mice per group; PBS 17 days
Description: Furthermore, in an effort to reduce the time required to obtain long-term survival data, the tumor cells were implanted intraperitoneally close to the liver. […] Aminofluorescein was injected along with the various cytokine combinations as a control because this compound is not linked to folate and will not retarget anti-fluorescein antibodies to tumor cells.
Each mouse was injected with 0.2 ml of a 1:10 dilution of the antibody stock solution on days 1, 4, 9, and 14 after tumor implantation to achieve NK cell depletion.
Additionally, the animals were immunized with FITC-labeled keyhole limpit hemocyanin (KLH) rather than FITC-labeled BSA.
Aminofluorescein was injected along with the IL-2, IFN-α cytokine combination as a control because this compound is not linked to folate and will not retarget anti-fluorescein antibodies to tumor cells.
Additionally, the animals were immunized with DNP-labeled keyhole limpit hemocyanin (KLH).
Additionally, the animals (5 mice per group) were immunized with FITC-labeled keyhole limpit hemocyanin (KLH) rather than FITC-labeled BSA.

## IFN-α
  median survival time: 17 days
